Source: patent publication US20240368163A1, “COMPOUNDS AND METHODS FOR MODULATING SPLICING” (REMIX THERAPEUTICS INC., priority 2021, published 2024)
Read-outs that look alike come from different tables or passages of the source.

How the values were obtained:
Type in all cases: cell-based, human
MYB = assay: HiBiT protein abundance assay, MYB; details: Table 13A, modified K562 cells
Procedure, shortened: (§1)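 Luminescent readout from lytic HiBiT/LgBiT complementation reports endogenous tagged protein level in engineered K562 cells. Compounds dosed 24 h, top 10 μM final, 3-fold steps, 10 points. IC50 is the concentration giving 50% of untreated-control abundance, from 4-parameter logistic fit.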

HTT [1] = assay: HiBiT protein abundance assay, HTT; details: Table 13A, modified K562 cells
Procedure, shortened: as §1

HTT [2] = assay: Splicing RT-qPCR assay, HTT mRNA canonical junction (CJ) and alternative junction (AJ); details: for AC50: increase in AJ mRNA
Procedure, shortened: (§2)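 Splicing switch read by one-step RT-qPCR of canonical and alternative exon junctions, housekeeper-normalized (GAPDH/GUSB/PPIA), 2^(−ΔΔCt) vs DMSO as percent response. Cells (A673 or K562) dosed 24 h, 11 points 3-fold from 10 uM, DMSO ≤0.25%.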

Target C = assay: Splicing RT-qPCR panel, Target C canonical junction (CJ) mRNA; details: RT-qPCR panel, canonical junction mRNA, compound concentration having 50% response in CJ decrease, read-out: Target C IC50 (decrease in CJ mRNA levels)
Procedure, shortened: as §2

SMN2 = assay: Splicing RT-qPCR panel, SMN2 canonical junction (CJ) mRNA; details: RT-qPCR panel, canonical junction mRNA, compound concentration having 50% response in CJ decrease, read-out: SMN2 IC50 (decrease in CJ mRNA levels)
Procedure, shortened: as §2

[3] = Homo sapiens, 24 h, decrease in CJ mRNA, A673 or K562 cells, 24 hours treatment, RT-qPCR, read-out: HTT CJ IC50
[4] = Homo sapiens, 24 h, A673 or K562 cells, 24 hours treatment, RT-qPCR
[5] = Homo sapiens, RT-qPCR panel, canonical junction mRNA, compound concentration having 50% response in CJ decrease, read-out: HTT IC50 (decrease in CJ mRNA levels)
[6] = RT-qPCR panel, canonical junction mRNA, compound concentration having 50% response in CJ decrease, read-out: HTT IC50 (decrease in CJ mRNA levels)

Row | Compound | IC50 (MYB; Homo sapiens, K562, 24 h) [nM] | IC50 (HTT [1]; Homo sapiens, K562, 24 h) [nM] | IC50 (HTT [2]; [3]) [nM] | AC50 (HTT [2]; [4]) [nM] | IC50 (HTT [2]; [5]) [nM] | IC50 (Target C; Homo sapiens) [nM] | IC50 (SMN2; Homo sapiens) [nM] | IC50 (MYB; 24 hours) [nM] | IC50 (HTT [2]; [6]) [nM] | IC50 (HTT [2]; decrease in CJ mRNA, A673 or K562 cells, 24 hours treatment, RT-qPCR, read-out: HTT CJ IC50) [nM] | IC50 (Target C) [nM] | IC50 (HTT [1]; 24 hours) [nM] | IC50 (SMN2) [nM]
1 | c1n[nH]cc1-c1ccc(-c2ccc(N[C@@H]3C[C@H]4CCC[C@@H](C3)N4)nn2)c2[nH]ncc12 [Compound 294] | 100 to 1000 | 100 to 1000 | 100 to 1000 | 100 to 1000 | 100 to 1000 | 100 to 1000 | < 100 |  |  |  |  |  | 
2 | CC1(C)CC(Oc2ccc(-c3cc(F)c(-c4cn[nH]c4)c4cn[nH]c34)nn2)CC(C)(C)N1 [Compound 307] | 100 to 1000 | < 100 | 100 to 1000 | 100 to 1000 | 100 to 1000 | 100 to 1000 | < 100 |  |  |  |  |  | 
3 | c1nc2c(-c3cn[nH]c3)ccc(-c3ccc(N(C4CC4)C4C[C@H]5CCC[C@@H](C4)N5)nn3)c2s1 (stereo partly shown) [Compound 311] | 100 to 1000 | 100 to 1000 |  | < 100 | < 100 | 100 to 1000 | < 100 |  |  |  |  |  | 
4 | Fc1cc(-c2ccc(OC3CC4CC(F)(F)C(C3)N4)nn2)c2[nH]ncc2c1-c1cn[nH]c1 (stereo not shown) [Compound 313, 7-[6-({6,6-difluoro-8-azabicyclo[3.2.1]octan-3-yl}oxy)pyridazin-3-yl]-5-fluoro-4-(1H-pyrazol-4-yl)-1H-indazole] | 100 to 1000 | 100 to 1000 |  | 100 to 1000 | < 100 | 100 to 1000 | < 100 |  |  |  |  |  | 
5 | Fc1cc(-c2ccc(O[C@@H]3C[C@H]4CC[C@@H](C3)N4)nn2)c2sncc2c1-c1cn[nH]c1 [Compound 327] | < 100 | < 100 |  | < 100 | < 100 | < 100 | < 100 |  |  |  |  |  | 
6 | COc1cc(-c2ccc(-c3ccc(N(C)C4CC(C)(C)NC(C)(C)C4)nn3)c3scnc23)cnn1 [Compound 330] | 100 to 1000 | < 100 |  | < 100 | < 100 | < 100 | < 100 |  |  |  |  |  | 
7 | CC(C)(C)NC1CCN(c2ccc(-c3ccc(-c4cn[nH]c4)c4ncsc34)nn2)C1 (stereo not shown) [Compound 336] |  | < 100 |  |  |  |  | < 100 | 100 to 1000 | 100 to 1000 | 100 to 1000 | > 10000 |  | 
8 | c1nc2c(-c3cn[nH]c3)ccc(-c3ccc(N4CCC(NC5CC5)C4)nn3)c2s1 (stereo not shown) [Compound 337] | 100 to 1000 | 1000 to 10000 | > 10000 | 1000 to 10000 | > 10000 | > 10000 | 100 to 1000 |  |  |  |  |  | 
9 | Fc1cc(-c2ccc(N[C@@H]3C[C@H]4CC[C@@H](C3)N4)nn2)c2scnc2c1-c1cn[nH]c1 [Compound 339] | < 100 | < 100 |  | < 100 | < 100 | < 100 | < 100 |  |  |  |  |  | 
10 | Cc1ncc(-c2ccc(-c3ccc(O[C@@H]4C[C@H]5CC[C@@H](C4)N5)nn3)c3scnc23)s1 [Compound 348, 7-{6-[(exo)-8-azabicyclo[3.2.1]octan-3-yloxy]pyridazin-3-yl}-4-(2-methyl-1,3-thiazol-5-yl)-1,3-benzothiazole] | < 100 | < 100 |  | 100 to 1000 | < 100 | 100 to 1000 | < 100 |  |  |  |  |  | 
11 | CN(c1ccc(-c2ccc(-c3cn[nH]c3)c3ncsc23)nn1)[C@H]1C[C@H]2COC[C@@H](C1)N2 [Compound 356, (endo)-N-methyl-N-{6-[4-(1H-pyrazol-4-yl)-1,3-benzothiazol-7-yl]pyridazin-3-yl}-3-oxa-9-azabicyclo[3.3.1]nonan-7-amine] |  |  |  |  |  |  |  | < 100 | < 100 |  | < 100 | < 100 | < 100
12 | COc1cc(-c2ccc(-c3ccc(O[C@@H]4C[C@H]5CC[C@@H](C4)N5)nn3)c3scnc23)cnn1 [Compound 362] | < 100 | < 100 |  | < 100 | < 100 | 100 to 1000 | < 100 |  |  |  |  |  | 
13 | Fc1ccn(-c2ccc(-c3ccc(O[C@@H]4C[C@H]5CC[C@@H](C4)N5)nn3)c3scnc23)n1 [Compound 363] | 100 to 1000 | < 100 |  | 100 to 1000 | < 100 | 100 to 1000 | < 100 |  |  |  |  |  | 
14 | CN(c1ncc(-c2ccc(-n3cccn3)c3[nH]ncc23)nn1)[C@@H]1C[C@H]2CCC[C@@H](C1)N2 [Compound 551] | < 100 | < 100 |  |  | < 100 | < 100 | < 100 |  |  |  |  |  | 
15 | c1cnn(-c2ccc(-c3cnc(N[C@@H]4C[C@H]5CC[C@@H](C4)N5)nn3)c3cn[nH]c23)c1 [Compound 556] | 100 to 1000 | < 100 |  |  | < 100 | 100 to 1000 | 100 to 1000 |  |  |  |  |  | 
16 | c1cnn(-c2ccc(-c3cnc(N[C@@H]4C[C@H]5CCC[C@@H](C4)N5)nn3)c3cn[nH]c23)c1 [Compound 561] | 100 to 1000 | < 100 |  |  | < 100 | 100 to 1000 | 100 to 1000 |  |  |  |  |  | 
17 | CC(C)(C)C1CN(c2ncc(-c3ccc(-n4cccn4)c4[nH]ncc34)nn2)CCN1 (stereo not shown) [Compound 572] | 100 to 1000 | < 100 |  |  | < 100 | 100 to 1000 | 100 to 1000 |  |  |  |  |  | 
18 | CN(c1ncc(-c2ccc(-n3cncn3)c3[nH]ncc23)nn1)[C@@H]1C[C@H]2CCC[C@@H](C1)N2 [Compound 574] | 100 to 1000 | < 100 |  |  | < 100 | < 100 | < 100 |  |  |  |  |  | 
19 | CN(c1ncc(-c2ccc(-n3ccnn3)c3[nH]ncc23)nn1)[C@@H]1C[C@H]2CCC[C@@H](C1)N2 [Compound 576] | 100 to 1000 | < 100 |  |  | < 100 | 100 to 1000 | 100 to 1000 |  |  |  |  |  | 
20 | Cc1ncc(-c2ccc(-c3cnc(N(C)[C@@H]4C[C@H]5CCC[C@@H](C4)N5)nn3)c3scnc23)s1 [Compound 578] | 100 to 1000 | < 100 |  |  | < 100 | 100 to 1000 | < 100 |  |  |  |  |  | 
